Values quoted from earlier work, collected in patent publication US20250369985A1, “METHOD FOR DETERMINING THE THERAPEUTIC REGIMEN FOR AN INDIVIDUAL AND ITS USE” (MOSAIQUES DIAGNOSTICS AND THERAPEUTICS AG, priority 2022, published 2025).
Read-outs that look alike come from different tables or passages of the source.

Tested on: urinary proteins/peptides (71 biomarkers of CD71 classifier)

Cc1ccc([C@@H]2O[C@H](CO)[C@@H](O)[C@H](O)[C@H]2O)cc1Cc1ccc(-c2ccc(F)cc2)s1 [drug C]
f (fold-change of the abundance) (peptide 99900220 (Seq. ID No. 1)): 1
f (fold-change of the abundance) (peptide 99900467 (Seq. ID No. 2)): 1
f (fold-change of the abundance) (peptide 99901399 (Seq. ID No. 3)): 1
f (fold-change of the abundance) (peptide 99902592 (Seq. ID No. 4)): 1
f (fold-change of the abundance) (peptide 99903025 (Seq. ID No. 5)): 1
f (fold-change of the abundance) (peptide 99904405 (Seq. ID No. 6)): 1.22
f (fold-change of the abundance) (peptide 99904666 (Seq. ID No. 7)): 1
f (fold-change of the abundance) (peptide 99904862 (Seq. ID No. 8)): 1
f (fold-change of the abundance) (peptide 99905044 (Seq. ID No. 9)): 1
f (fold-change of the abundance) (peptide 99905259 (Seq. ID No. 10)): 1
f (fold-change of the abundance) (peptide 99905274 (Seq. ID No. 11)): 1.86
f (fold-change of the abundance) (peptide 99905379 (Seq. ID No. 12)): 1
f (fold-change of the abundance) (peptide 99905423 (Seq. ID No. 13)): 1
f (fold-change of the abundance) (peptide 99905509 (Seq. ID No. 14)): 1
f (fold-change of the abundance) (peptide 99905551 (Seq. ID No. 15)): 1
f (fold-change of the abundance) (peptide 99906176 (Seq. ID No. 16)): 1
f (fold-change of the abundance) (peptide 99907275 (Seq. ID No. 17)): 1
f (fold-change of the abundance) (peptide 99907807 (Seq. ID No. 18)): 1.84
f (fold-change of the abundance) (peptide 99908755 (Seq. ID No. 19)): 1
f (fold-change of the abundance) (peptide 99908795 (Seq. ID No. 20)): 1
f (fold-change of the abundance) (peptide 99908916 (Seq. ID No. 21)): 1
f (fold-change of the abundance) (peptide 99909059 (Seq. ID No. 22)): 1
f (fold-change of the abundance) (peptide 99910002 (Seq. ID No. 23)): 1
f (fold-change of the abundance) (peptide 99910032 (Seq. ID No. 24)): 1
f (fold-change of the abundance) (peptide 99910407 (Seq. ID No. 25)): 1
f (fold-change of the abundance) (peptide 99910483 (Seq. ID No. 26)): 1
f (fold-change of the abundance) (peptide 99910554 (Seq. ID No. 27)): 1
f (fold-change of the abundance) (peptide 99910883 (Seq. ID No. 28)): 1.71
f (fold-change of the abundance) (peptide 99911002 (Seq. ID No. 29)): 1
f (fold-change of the abundance) (peptide 99911193 (Seq. ID No. 30)): 1
f (fold-change of the abundance) (peptide 99911415 (Seq. ID No. 31)): 1
f (fold-change of the abundance) (peptide 99911559 (Seq. ID No. 32)): 1.33
f (fold-change of the abundance) (peptide 99911777 (Seq. ID No. 33)): 1
f (fold-change of the abundance) (peptide 99912101 (Seq. ID No. 34)): 1
f (fold-change of the abundance) (peptide 99912211 (Seq. ID No. 35)): 1
f (fold-change of the abundance) (peptide 99912366 (Seq. ID No. 36)): 1
f (fold-change of the abundance) (peptide 99912411 (Seq. ID No. 37)): 1
f (fold-change of the abundance) (peptide 99912661 (Seq. ID No. 38)): 1
f (fold-change of the abundance) (peptide 99913200 (Seq. ID No. 39)): 1
f (fold-change of the abundance) (peptide 99913322 (Seq. ID No. 40)): 1.86
f (fold-change of the abundance) (peptide 99913825 (Seq. ID No. 41)): 1
f (fold-change of the abundance) (peptide 99914211 (Seq. ID No. 42)): 1
f (fold-change of the abundance) (peptide 99914445 (Seq. ID No. 43)): 0.64
f (fold-change of the abundance) (peptide 99914876 (Seq. ID No. 44)): 1
f (fold-change of the abundance) (peptide 99914887 (Seq. ID No. 45)): 1
f (fold-change of the abundance) (peptide 99914893 (Seq. ID No. 46)): 1
f (fold-change of the abundance) (peptide 99914935 (Seq. ID No. 47)): 1.55
f (fold-change of the abundance) (peptide 99915015 (Seq. ID No. 48)): 1
f (fold-change of the abundance) (peptide 99915755 (Seq. ID No. 49)): 1
f (fold-change of the abundance) (peptide 99915778 (Seq. ID No. 50)): 1
f (fold-change of the abundance) (peptide 99915883 (Seq. ID No. 51)): 1
f (fold-change of the abundance) (peptide 99916170 (Seq. ID No. 52)): 1
f (fold-change of the abundance) (peptide 99916177 (Seq. ID No. 53)): 1
f (fold-change of the abundance) (peptide 99916611 (Seq. ID No. 54)): 0.79
f (fold-change of the abundance) (peptide 99916615 (Seq. ID No. 55)): 0.83
f (fold-change of the abundance) (peptide 99916966 (Seq. ID No. 56)): 1
f (fold-change of the abundance) (peptide 99917047 (Seq. ID No. 57)): 1
f (fold-change of the abundance) (peptide 99917221 (Seq. ID No. 58)): 1
f (fold-change of the abundance) (peptide 99917280 (Seq. ID No. 59)): 1
f (fold-change of the abundance) (peptide 99917288 (Seq. ID No. 60)): 1
f (fold-change of the abundance) (peptide 99917419 (Seq. ID No. 61)): 1
f (fold-change of the abundance) (peptide 99917505 (Seq. ID No. 62)): 1
f (fold-change of the abundance) (peptide 99917596 (Seq. ID No. 63)): 1
f (fold-change of the abundance) (peptide 99917626 (Seq. ID No. 64)): 1
f (fold-change of the abundance) (peptide 99917690 (Seq. ID No. 65)): 0.63
f (fold-change of the abundance) (peptide 99917825 (Seq. ID No. 66)): 2.01
f (fold-change of the abundance) (peptide 99917890 (Seq. ID No. 67)): 1
f (fold-change of the abundance) (peptide 99917947 (Seq. ID No. 68)): 1
f (fold-change of the abundance) (peptide 99918831 (Seq. ID No. 69)): 1
f (fold-change of the abundance) (peptide 99918906 (Seq. ID No. 70)): 1
f (fold-change of the abundance) (peptide 99918909 (Seq. ID No. 71)): 1
